Test results published in PubChem BioAssay (NCI).
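All cell lines were grown in 96-well plates and treated with compound for 48 hours. At the GI50, growth is halved. At the TGI there is no net growth.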

Tests used:
Test in all cases: growth of human tumour cells (NCI), 48 h
OVCAR-5 ovarian = system: OVCAR-5 ovarian
OVCAR-4 ovarian = system: OVCAR-4 ovarian
U251 CNS = system: U251 CNS
OVCAR-3 ovarian = system: OVCAR-3 ovarian
HOP-62 NSCLC = system: HOP-62 NSCLC
DMS 273 small cell lung = system: DMS 273 small cell lung
ACHN renal = system: ACHN renal
MOLT-4 leukemia = system: MOLT-4 leukemia
SR leukemia = system: SR leukemia
DMS 114 small cell lung = system: DMS 114 small cell lung
SK-MEL-2 melanoma = system: SK-MEL-2 melanoma
SW-620 colon = system: SW-620 colon
NCI-H460 lung = system: NCI-H460 lung
SF-295 CNS = system: SF-295 CNS
SK-MEL-28 melanoma = system: SK-MEL-28 melanoma
SN12C renal = system: SN12C renal
786-0 renal = system: 786-0 renal
A498 renal = system: A498 renal
NCI-H226 lung = system: NCI-H226 lung
COLO 205 colon = system: COLO 205 colon
DLD-1 colon = system: DLD-1 colon
SNB-75 CNS = system: SNB-75 CNS
UACC-62 melanoma = system: UACC-62 melanoma
NCI-H23 lung = system: NCI-H23 lung
HOP-18 NSCLC = system: HOP-18 NSCLC
HCC-2998 colon = system: HCC-2998 colon
OVCAR-8 ovarian = system: OVCAR-8 ovarian
UACC-257 melanoma = system: UACC-257 melanoma
HCT-15 colon = system: HCT-15 colon
SNB-78 CNS = system: SNB-78 CNS
SK-OV-3 ovarian = system: SK-OV-3 ovarian
HCT-116 colon = system: HCT-116 colon
TK-10 renal = system: TK-10 renal
HT29 colon = system: HT29 colon
KM20L2 colon = system: KM20L2 colon
LOX IMVI melanoma = system: LOX IMVI melanoma
SNB-19 CNS = system: SNB-19 CNS
SF-539 CNS = system: SF-539 CNS
XF 498 CNS = system: XF 498 CNS
LXFL 529 NSCLC = system: LXFL 529 NSCLC
IGROV1 ovarian = system: IGROV1 ovarian
EKVX NSCLC = system: EKVX NSCLC
SK-MEL-5 melanoma = system: SK-MEL-5 melanoma
K-562 leukemia = system: K-562 leukemia
HOP-92 NSCLC = system: HOP-92 NSCLC
CCRF-CEM leukemia = system: CCRF-CEM leukemia
MALME-3M melanoma = system: MALME-3M melanoma
SF-268 CNS = system: SF-268 CNS
RXF 393 renal = system: RXF 393 renal
M14 melanoma = system: M14 melanoma
M19-MEL melanoma = system: M19-MEL melanoma
KM12 colon = system: KM12 colon
NCI-H522 lung = system: NCI-H522 lung
A549 NSCLC = system: A549 NSCLC
UO-31 renal = system: UO-31 renal
HL-60(TB) leukemia = system: HL-60(TB) leukemia
RPMI-8226 leukemia = system: RPMI-8226 leukemia

Work on `CCC[CH2][Sn]([CH2]CCC)([O]C(=O)Cc1ccc(F)cc1)[O]C(=O)Cc1ccc(F)cc1` yielded a GI50 (OVCAR-5 ovarian) of 1.79 µM, a TGI (OVCAR-5 ovarian) of 3.18 µM and a GI50 (OVCAR-4 ovarian) of 1.68 µM. It also gave a TGI (OVCAR-4 ovarian) of 3.13 µM, a GI50 (U251 CNS) of 0.361 µM and a TGI (U251 CNS) of 1.54 µM. For the same compound, the GI50 (OVCAR-3 ovarian) was 1.27 µM, the TGI (OVCAR-3 ovarian) was 2.54 µM and the GI50 (HOP-62 NSCLC) was 2.38 µM. It also gave a TGI (HOP-62 NSCLC) of 4.08 µM, a GI50 (DMS 273 small cell lung) of 1.04 µM and a TGI (DMS 273 small cell lung) of 2.22 µM. For the same compound, the GI50 (ACHN renal) was 0.756 µM, the TGI (ACHN renal) was 2.01 µM and the GI50 (MOLT-4 leukemia) was 0.124 µM. For the same compound, the TGI (MOLT-4 leukemia) was 0.796 µM, the GI50 (SR leukemia) was 0.196 µM and the TGI (SR leukemia) was 1.86 µM. The GI50 (DMS 114 small cell lung) was 0.14 µM, the TGI (DMS 114 small cell lung) was 0.393 µM and the GI50 (SK-MEL-2 melanoma) was 0.355 µM. For the same compound, the TGI (SK-MEL-2 melanoma) was 1.48 µM, the GI50 (SW-620 colon) was 0.206 µM and the TGI (SW-620 colon) was 1.13 µM. For the same compound, the GI50 (NCI-H460 lung) was 2.27 µM, the TGI (NCI-H460 lung) was 5.85 µM and the GI50 (SF-295 CNS) was 1.13 µM. It also gave a TGI (SF-295 CNS) of 2.34 µM, a GI50 (SK-MEL-28 melanoma) of 0.396 µM and a TGI (SK-MEL-28 melanoma) of 1.68 µM. For the same compound, the GI50 (SN12C renal) was 0.856 µM, the TGI (SN12C renal) was 2.1 µM and the GI50 (786-0 renal) was 0.505 µM. For the same compound, the TGI (786-0 renal) was 1.72 µM, the GI50 (A498 renal) was 0.573 µM and the TGI (A498 renal) was 1.86 µM. The GI50 (NCI-H226 lung) was 0.443 µM, the TGI (NCI-H226 lung) was 1.85 µM and the GI50 (COLO 205 colon) was 0.679 µM. The TGI (COLO 205 colon) was 2 µM, the GI50 (DLD-1 colon) was 0.291 µM and the TGI (DLD-1 colon) was 1.42 µM. It also gave a GI50 (SNB-75 CNS) of 0.705 µM, a TGI (SNB-75 CNS) of 2.1 µM and a GI50 (UACC-62 melanoma) of 0.629 µM. For the same compound, the TGI (UACC-62 melanoma) was 1.89 µM, the GI50 (NCI-H23 lung) was 0.176 µM and the TGI (NCI-H23 lung) was 1.14 µM. The GI50 (HOP-18 NSCLC) was 1.67 µM, the TGI (HOP-18 NSCLC) was 3.05 µM and the GI50 (HCC-2998 colon) was 1.23 µM. It also gave a TGI (HCC-2998 colon) of 2.52 µM, a GI50 (OVCAR-8 ovarian) of 0.917 µM and a TGI (OVCAR-8 ovarian) of 2.13 µM. It also gave a GI50 (UACC-257 melanoma) of 0.603 µM, a TGI (UACC-257 melanoma) of 1.99 µM and a GI50 (HCT-15 colon) of 1.04 µM. For the same compound, the TGI (HCT-15 colon) was 2.23 µM, the GI50 (SNB-78 CNS) was 0.284 µM and the TGI (SNB-78 CNS) was 1.57 µM. The GI50 (SK-OV-3 ovarian) was 2.93 µM, the TGI (SK-OV-3 ovarian) was 7.33 µM and the GI50 (HCT-116 colon) was 0.657 µM. For the same compound, the TGI (HCT-116 colon) was 1.97 µM, the GI50 (TK-10 renal) was 1.03 µM and the TGI (TK-10 renal) was 2.21 µM. It also gave a GI50 (HT29 colon) of 1.61 µM, a TGI (HT29 colon) of 3.68 µM and a GI50 (KM20L2 colon) of 1.88 µM. For the same compound, the TGI (KM20L2 colon) was 4.69 µM, the GI50 (LOX IMVI melanoma) was 0.279 µM and the TGI (LOX IMVI melanoma) was 1.27 µM. The GI50 (SNB-19 CNS) was 1.36 µM, the TGI (SNB-19 CNS) was 2.65 µM and the GI50 (SF-539 CNS) was 1.06 µM. It also gave a TGI (SF-539 CNS) of 2.28 µM, a GI50 (XF 498 CNS) of 1.08 µM and a TGI (XF 498 CNS) of 2.29 µM. For the same compound, the GI50 (LXFL 529 NSCLC) was 0.0476 µM, the TGI (LXFL 529 NSCLC) was 0.202 µM and the GI50 (IGROV1 ovarian) was 1.34 µM. It also gave a TGI (IGROV1 ovarian) of 2.79 µM, a GI50 (EKVX NSCLC) of 0.777 µM and a TGI (EKVX NSCLC) of 2.09 µM. It also gave a GI50 (SK-MEL-5 melanoma) of 1.08 µM, a TGI (SK-MEL-5 melanoma) of 2.27 µM and a GI50 (K-562 leukemia) of 0.0535 µM. It also gave a TGI (K-562 leukemia) of 0.58 µM, a GI50 (HOP-92 NSCLC) of 1.02 µM and a TGI (HOP-92 NSCLC) of 2.2 µM. It also gave a GI50 (CCRF-CEM leukemia) of 0.0362 µM, a TGI (CCRF-CEM leukemia) of 11.9 µM and a GI50 (MALME-3M melanoma) of 0.24 µM. It also gave a TGI (MALME-3M melanoma) of 1.35 µM, a GI50 (SF-268 CNS) of 0.45 µM and a TGI (SF-268 CNS) of 1.75 µM. The GI50 (RXF 393 renal) was 0.145 µM, the TGI (RXF 393 renal) was 0.695 µM and the GI50 (M14 melanoma) was 1.06 µM. It also gave a TGI (M14 melanoma) of 2.26 µM, a GI50 (M19-MEL melanoma) of 0.295 µM and a TGI (M19-MEL melanoma) of 1.65 µM. For the same compound, the GI50 (KM12 colon) was 1.71 µM, the TGI (KM12 colon) was 4.03 µM and the GI50 (NCI-H522 lung) was 0.0232 µM. The TGI (NCI-H522 lung) was 0.149 µM, the GI50 (A549 NSCLC) was 7 µM and the TGI (A549 NSCLC) was 19.9 µM. For the same compound, the GI50 (UO-31 renal) was 1.43 µM and the TGI (UO-31 renal) was 2.75 µM.

Compound `COc1ccccc1N=Nc1c(-c2ccccc2)nn(C(=O)CC(=O)Nc2ccccc2Cl)c1-c1ccccc1` has a TGI (OVCAR-5 ovarian) of over 100 µM, a TGI (OVCAR-4 ovarian) of over 100 µM and a TGI (U251 CNS) of over 100 µM. The TGI (OVCAR-3 ovarian) was over 100 µM, the TGI (HOP-62 NSCLC) was over 100 µM and the TGI (DMS 273 small cell lung) was over 100 µM. The TGI (ACHN renal) was over 100 µM, the TGI (MOLT-4 leukemia) was over 100 µM and the TGI (SR leukemia) was over 100 µM. For the same compound, the TGI (DMS 114 small cell lung) was over 100 µM, the TGI (SW-620 colon) was over 100 µM and the TGI (NCI-H460 lung) was over 100 µM. The TGI (SF-295 CNS) was over 100 µM, the TGI (SK-MEL-28 melanoma) was over 100 µM and the TGI (SN12C renal) was over 100 µM. For the same compound, the TGI (786-0 renal) was over 100 µM, the TGI (A498 renal) was over 100 µM and the TGI (NCI-H226 lung) was over 100 µM. The TGI (COLO 205 colon) was over 100 µM, the TGI (DLD-1 colon) was over 100 µM and the TGI (SNB-75 CNS) was over 100 µM. For the same compound, the TGI (UACC-62 melanoma) was over 100 µM, the TGI (NCI-H23 lung) was over 100 µM and the TGI (HOP-18 NSCLC) was over 100 µM. For the same compound, the TGI (HL-60(TB) leukemia) was over 100 µM, the TGI (HCC-2998 colon) was over 100 µM and the TGI (OVCAR-8 ovarian) was over 100 µM. It also gave a TGI (UACC-257 melanoma) of over 100 µM, a TGI (HCT-15 colon) of over 100 µM and a TGI (SNB-78 CNS) of over 100 µM. For the same compound, the TGI (SK-OV-3 ovarian) was over 100 µM, the TGI (HCT-116 colon) was over 100 µM and the TGI (TK-10 renal) was over 100 µM. It also gave a TGI (HT29 colon) of over 100 µM, a TGI (KM20L2 colon) of over 100 µM and a TGI (LOX IMVI melanoma) of over 100 µM. The TGI (SNB-19 CNS) was over 100 µM, the TGI (RPMI-8226 leukemia) was over 100 µM and the TGI (SF-539 CNS) was over 100 µM. The TGI (XF 498 CNS) was over 100 µM, the TGI (LXFL 529 NSCLC) was over 100 µM and the TGI (IGROV1 ovarian) was over 100 µM. For the same compound, the TGI (EKVX NSCLC) was over 100 µM, the TGI (SK-MEL-5 melanoma) was over 100 µM and the TGI (K-562 leukemia) was over 100 µM. For the same compound, the TGI (CCRF-CEM leukemia) was over 100 µM, the TGI (MALME-3M melanoma) was over 100 µM and the TGI (SF-268 CNS) was over 100 µM. It also gave a TGI (RXF 393 renal) of over 100 µM, a TGI (M14 melanoma) of over 100 µM and a TGI (M19-MEL melanoma) of over 100 µM. It also gave a TGI (KM12 colon) of over 100 µM, a TGI (NCI-H522 lung) of over 100 µM and a TGI (A549 NSCLC) of over 100 µM. The TGI (UO-31 renal) was over 100 µM.
